Literature values in patent US20230270982A1, “DEVICES FOR REGIO-SPECIFIC RELEASE OF CARRIED DRUG AT ILEOCECAL REGION” (Teva Pharmaceutical Industries Ltd., priority 2020, published 2023).

Assays:
[1] = oral ester prodrug; extensive intestinal esterase degradation
[2] = system: inflammatory bowel disease in mice; conditions: given topically

| Compound | bioavailability of the prodrug [1] | treating UC [2] |
| --- | --- | --- |
| CC(C)OC(=O)OCOP(=O)(CO[C@H](C)Cn1cnc2c(N)ncnc21)OCOC(=O)OC(C)C [Tenofovir disoproxil] | about 30% | – |
| glatiramer acetate | – | effective |
